From US20230346893A1, “Methods and Compositions for Preventing or Minimizing Epithelial-Mesenchymal Transition” (Innovon Pharmaceuticals Inc., priority 2016, published 2023)

Key:
HK-2 cells [1] = assay: TGF-β-induced collagen 1 mRNA expression (EMT marker) in HK-2 cells, quantitative real-time PCR; type: cell-based, human
HK-2 cells [2] = assay: as above; type: cell-based, human; settings: for Effect on expression of collagen in TGF-β-induced HK-2 cells (in words): alone or formulated with albumin, concentrations of Table 1; for Changes in collagen mRNA expression (relative to TGF-β-treated cells): fatty acid concentration 5.0 × 10^−4M, TGF-β 10 ng/ml
Experimental: HSA was dissolved in PBS to obtain a concentration of 6.6% (6.6 g/100 ml), and was filtered using a 0.2 μm filter. 75 μl of sodium octanoate or sodium decanoate 10 mM was mixed with 75 μl of HSA 6.6% (without vortex), and incubated 10 min at room temperature. 100 μL of this mixture was used in the assay of Example 4 in a final volume of 1 ml (dilution 1:10).
Analysis was undertaken to determine the effect of various compositions on TGF-β-induced collagen 1 expression, which is a marker of EMT, on immortalized human proximal tubule epithelial cells (HK-2 cells). HK-2 cells were treated with TGF-β (an inducer of EMT) at a concentration of 10 ng/ml. Expression of the EMT marker collagen 1 mRNA was determined by quantitative real-time PCR.
Real-Time PCR was using human TaqMan Gene Expression Assay normalized to human GAPDH endogenous control. Reference is TGF-β1 control (RQ=1). The * and ** mean a p value of 0.05 and 0.01 respectively, compared to reference. Tested concentration of the mixture of sodium octanoate and sodium decanoate is 500 μM. The number of experiments is 3 (n=3).

[3] = tested on: human hepatocellular carcinoma cell line HepG2; assay: Collagen 1a1 mRNA expression (EMT marker) in TGF-β induced HepG2; type: cell-based; settings: 500 μM; both in presence of albumin (With HSA) or absence of albumin (No HSA); n=3
Experimental: Real-Time PCR was using human TaqMan Gene Expression Assay normalized to human GAPDH endogenous control. Reference is TGF-β1 control (RQ=1). The *, ** and **** mean a p value of 0.05, 0.01 and 0.0001 respectively, compared to reference. Tested concentration of sodium octanoate and sodium decanoate is 500 μM. The number of experiments is 3 (n=3).

PC-3 cells = assay: Scratch assay, migration/invasion of mitomycin-treated EGF-induced PC-3 cells; type: cell-based, human; settings: EGF 50 ng/mL + Mitomycin C 10 μg/mL, 24 h; for EGF-induced PC-3 migration or invasion (FIG. 7, in words): with and without albumin
Text: The present experiment exemplifies EMT analysis of cancer cells through invasion/migration of PC-3 cell in a “scratch assay”. This assay is based on the observation that, upon creation of a new artificial gap, so called ‘scratch’, on a confluent cell monolayer, the cells on the edge of the newly created gap will move toward the opening to close the scratch. EGF ([…]) was used to induce the migratory/invasion of PC-3 cells into the scratch. Briefly, culture-inserts are placed in a 24-well cell culture plate. PC-3 cells are seeded in culture-inserts and are incubated overnight at 37° C. in a CO2 incubator. Cells are then starved with serum-free medium for another 24 hours. The insert is removed, leaving a visible 500 μm cell-free gap. Cells were treated for 24 h with EGF at 50 ng/mL and Mitomycin C at 10 μg/mL (Mito+EGF) and with a pro-EMT agent, sodium octanoate (Mito+EGF+sodium octanoate) or an anti-EMT agent, sodium decanoate (Mito+EGF+sodium decanoate), with HSA (second row in FIG. 7) and without HSA (first row in FIG. 7). Pictures are taken at 1 h post-treatment as a confluence control for each group. After 24 h, cells are fixed with Crystal Violet staining and air dried before 24 h post treatment pictures are taken.

[4] = tested on: human microvascular endothelial cells (HMEC); assay: Collagen 1a1 mRNA expression (EndoMT/EMT marker) in TGF-β induced HMEC; type: cell-based; settings: 500 μM; both in presence of albumin (With HSA) or absence of albumin (No HSA); n=3
Experimental: Endothelial to mesenchymal transition (EndoMT), which is included in the definition of the expression EMT as used in the present description, can be induced by transforming growth factor (TGF-β). […] Real-Time PCR was using human TaqMan Gene Expression Assay normalized to human GAPDH endogenous control. Reference is TGF-β1 control (RQ=1). The ** and *** mean a p value of 0.01 and 0.001 respectively, compared to reference. Tested concentration of sodium octanoate and sodium decanoate is 500 μM. The number of experiments is 3 (n=3).

[5] = tested on: human lung epithelial cell A549; assay: Collagen 1a1 mRNA expression (EMT marker) in TGF-β induced A549; type: cell-based; settings: 500 μM; both in presence of albumin (With HSA) or absence of albumin (No HSA); n=3
Experimental: Real-Time PCR was using human TaqMan Gene Expression Assay normalized to human GAPDH endogenous control. Reference is TGF-β1 control (RQ=1). The *** and **** mean a p value of 0.001 and 0.0001 respectively, compared to reference. Tested concentration of sodium octanoate and sodium decanoate is 500 μM. The number of experiments is 3 (n=3).

[6] = fatty acid concentration 2.5 × 10^−4M, TGF-β 10 ng/ml

For CCCCCCCCCC(=O)O [Decanoic Acid], the “Changes in collagen mRNA expression (relative to TGF-β-treated cells)” value (from here on “Changes … (relative to TGF-β-treated cells)”) (HK-2 cells [1]; fatty acid concentration 5.8 × 10^−7M, TGF-β 10 ng/ml) was 105.4% of decrease.
With CCCCCCCCC(=O)O [Nonanoic Acid] the “Changes … (relative to TGF-β-treated cells)” value (HK-2 cells [1]; fatty acid concentration 6.3 × 10^−7M, TGF-β 10 ng/ml) was 51.4% of decrease and the “Effect on expression of collagen in TGF-β-induced HK-2 cells (in words)” value (“Effect on expression of collagen” below) (HK-2 cells [2]) was “inhibited the expression of collagen”.
For CCCCCCCCCC(=O)[O-].[Na+] [Sodium Decanoate], the “Changes … (relative to TGF-β-treated cells)” value (HK-2 cells [1]; [6]) was 66.6% of decrease, the “Effect on expression of collagen” value (HK-2 cells [2]) was “decrease (or inhibit) the expression of collagen” and the “Changes … (relative to TGF-β-treated cells)” value (HK-2 cells [2]) was 103.4% of decrease. For the same compound, the “Mesenchymal transition induced by TGF-β (collagen 1a1 mRNA expression, FIG. 5, in words)” value [3] was “reduced significantly the mesenchymal transition”, the “EGF-induced PC-3 migration or invasion (FIG. 7, in words)” value (PC-3 cells) was “inhibition of the EGF-induced PC-3 migration or invasion” and the “Mesenchymal transition induced by TGF-β (collagen 1a1 mRNA expression, FIG. 4, in words)” value [4] was “reduced significantly the mesenchymal transition”. The “Mesenchymal transition induced by TGF-β (collagen 1a1 mRNA expression, FIG. 6, in words)” value [5] was “reduced significantly the mesenchymal transition”.
CCCCCCCCCCCC(=O)[O-].[Na+] [Sodium Laurate] was tested, and the “Changes … (relative to TGF-β-treated cells)” value (HK-2 cells [1]; fatty acid concentration 1.0 × 10^−4M, TGF-β 10 ng/ml) was 113.7% of decrease and the “Effect on expression of collagen” value (HK-2 cells [2]) was “inhibited the expression of collagen”.
CCCCCCCC(=O)[O-].[Na+] [Sodium Octanoate, reference compound] was tested, and the “Changes … (relative to TGF-β-treated cells)” value (HK-2 cells [1]; [6]) was 42.2% of increase, the “Effect on expression of collagen” value (HK-2 cells [2]) was “expression of collagen was increased (or stimulated)” and the “Changes … (relative to TGF-β-treated cells)” value (HK-2 cells [2]) was 24.1% of increase. For the same compound, the “Mesenchymal transition induced by TGF-β (collagen 1a1 mRNA expression, FIG. 5, in words)” value [3] was “contrarily”, the “EGF-induced PC-3 migration (FIG. 7, in words)” value (PC-3 cells; combined with albumin) was “migration is increased” and the “EGF-induced PC-3 migration or invasion (FIG. 7, in words)” value (PC-3 cells) was “does not inhibit the cell migration”. The “Mesenchymal transition induced by TGF-β (collagen 1a1 mRNA expression, FIG. 4, in words)” value [4] was “contrarily” and the “Mesenchymal transition induced by TGF-β (collagen 1a1 mRNA expression, FIG. 6, in words)” value [5] was “no significant results”.
With CCCCCCCCCC(=O)OCC(COC(=O)CCCCCCCCC)OC(=O)CCCCCCCCC [Tricaprin] the “Changes … (relative to TGF-β-treated cells)” value (HK-2 cells [1]; triglyceride concentration 5%) was 120.4% of decrease.
In the case of CCCCCCCCCCCC(=O)OCC(COC(=O)CCCCCCCCCCC)OC(=O)CCCCCCCCCCC [Trilaurin], the “Changes … (relative to TGF-β-treated cells)” value (HK-2 cells [1]; triglyceride concentration 5%) was 84.6% of decrease.
For CCCCCCCCCCCCCC(=O)OCC(COC(=O)CCCCCCCCCCCCC)OC(=O)CCCCCCCCCCCCC [Trimyristin], the “Changes … (relative to TGF-β-treated cells)” value (HK-2 cells [1]; triglyceride concentration 5%) was 52.3% of decrease.
CCCCCCCCCCC(=O)O [Undecanoic Acid] was tested, and the “Changes … (relative to TGF-β-treated cells)” value (HK-2 cells [1]; fatty acid concentration 2.7 × 10^−7M, TGF-β 10 ng/ml) was 120.95% of decrease and the “Effect on expression of collagen” value (HK-2 cells [2]) was “inhibited the expression of collagen”.
